The subject of series [1] is NASH in vivo models. Put plainly: NASH in vivo models, summary and comparison of data from multiple studies (Table 15; first row Aardvark Therapeutics, PCT/US2022/014550). The following applies: Male C57BL/6 mice fed AMLN diet for 48 weeks; 30 mg/kg, PO, QD for 48 weeks. From the text: FIGS. 23 through 33B show data from this Example 6, which is further described above under the heading, Brief Description of the Figures. A summary and comparison of NASH in vivo data from multiple studies is shown below in Table 15. [table] […] This makes it difficult to do direct comparisons of the data. The study corresponding to the first row (called Aardvark Therapeutics) is provided in PCT Patent application PCT/US2022/014550, filed Jan. 31, 2022.

In series [2] the test system is AMLN-diet induced mice (fatty liver disease/NASH model). The format is in vivo. The following applies: in words. An excerpt: This Example provides the results obtained from an in vivo mouse model of fatty liver disease treatment to investigate the therapeutic effect of DA on the treatment of NASH versus positive control semaglutide (a GLP-1 agonist marketed drug for lowering HbA1c). This study used a positive control semaglutide, a vehicle control, study drug DA and a combination of semaglutide and DA. Mouse strain (B6 mice) was used, and the animals were already adults (23 weeks old) when the study began because the animals were already fed an AMLN diet for 17 weeks prior to the study being initiated. The study dose began at 75 mg/kg BID.
The study included 3 groups of 10 mice each, (A) vehicle control with distilled water by gavage BID, (B) DA by gavage BID, and (C) semaglutide […] sc QD. Body weights and changes were measured 3× per week. Serum metabolic markers (blood glucose, blood insulin, HbA1c, HDL, LDL triglycerides and bile acids) were measured at beginning of dosing (baseline) and end of study. At the end of the study, histopathology of liver samples and serum levels of inflammatory biomarkers (IL-6, TNFα, CK-18 and TGF-β) were evaluated. Histopathology was performed blindly with a scoring scale according to NAFLD Activity Score and Fibrosis Score according to Table 13. Table 14 identifies the kits and equipment used to measure serum parameters.

Another series has as its system C57BL/6 mice fed on HFD. As to conditions: end of study, semaglutide 25 nmol/kg every two days SC 3 weeks, cited from earlier work.
The conditions of series [3]: cited from earlier work; for TC level change from baseline / LDL level change from baseline: placebo +2%; for HDL level change from baseline: placebo +1%; for TG level change from baseline: placebo −2%; for Effect on Body Weight (placebo-adjusted change from baseline) / Effect on HbA1c (placebo-adjusted change from baseline) / Effect on Body Weight (placebo-adjusted change from baseline), percent: QD 24-26 weeks.

For series [4] the following is noted: cited from earlier work; for percentage of patients in whom NASH resolution was achieved with no worsening of fibrosis: placebo 17%.
Series [5] relates to NASH in vivo models. As to conditions: Male C57BL/6J mice fed AMLN diet for 32 weeks, 10 nmol/kg, SC for 12 weeks, cited from earlier work.
The conditions of series [6]: in vivo; cited from earlier work.
The conditions of series [7]: side effect incidence; cited from earlier work.
The mark [8] stands for this setting: exenatide 24 nmol/kg QD IP 4 weeks.
Where [9] appears, read: semaglutide 3 mg, sitagliptin 100 mg, saxagliptin 2.5 mg, vildagliptin 50 mg, alogliptin 12.5 mg, linagliptin 5 mg.
Setting [10] is: semaglutide 7 mg, sitagliptin 200 mg, saxagliptin 5 mg, vildagliptin 100 mg, alogliptin 25 mg.
[11] abbreviates: semaglutide 14 mg, saxagliptin 10 mg.

This is an account of results in US20240216476A1, “COMBINATION OF BITTER RECEPTOR AGONIST AND GUT-SIGNALING COMPOUND” (AARDVARK THERAPEUTICS, INC., priority 2021, published 2024).

Like-named read-outs stand apart in the source and are kept apart here. Marks after values point to notes of the source that are not given here.

On to `CC(=O)[O-].CC[N+](CC)(CC(=O)Nc1c(C)cccc1C)Cc1ccccc1` [DA or ARD-101], for which, in the series on NASH in vivo models [1], the “serum level of ALT, change” value was “ALT (−43%), AST”; the “serum level of AST, change” value is “(−9.5%), and bile acid”; the “serum level of HbAlc, change” value is −6.7%; the “serum level of bile acid, change” value is listed as “(−16.2%)”. For the same compound, in the series on NASH in vivo models [1], the “serum level of fasting glucose, change” value is −9%; the “serum levels of GLP-1 and GLP-2” value was “Increased serum levels”; the “serum levels of inflammatory markers” value is recorded as “Lowered serum levels”; the “steatosis and fibrosis on histopathology” value is “Significantly improved”.
On to Semaglutide, for which the “NAFLD Activity Score based on blinded histopathologic review” value in series [2] (12 weeks, DA 75 then 50 mg/kg BID by gavage, semaglutide 10 mmol/kg sc QD) is “significantly improved NAFLD Activity Score”. For the same compound, the “body weight and body weight change” value in series [2] (12 weeks, DA 75 then 50 mg/kg BID, semaglutide 10 mmol/kg sc QD) is “remarkable effect on body weight”. In series [2] (end of study), the HDLs entry is reported as “significantly decreased”, the LDLs entry is “significantly decreased” and the TGs result was “significantly decreased”. Moreover, in the series on C57BL/6 mice fed on HFD (exenatide 24 nmol/kg QD IP 4 weeks, dulaglutide 0.6 mg/kg once weekly IP 12 weeks, liraglutide 0.3 mg/kg QD SC 38 days), the “Control-adjusted Percent Change in Fasting Blood Glucose” value is recorded as −12.8%***. Further, in the series with C57BL/6 mice fed on HFD (setting [8]), the “Control-adjusted Percent Change in Lipid Levels: TC” value is listed as “TC: −16.7%**” and the “Control-adjusted Percent Change in Lipid Levels: TG” value is reported as “TG: −13.8%**”. For the same compound, in the series with C57BL/6 mice fed on HFD, the “Absolute body weight percent change” value is −13.4%^## and the “Control-adjusted Percent Change in Lipid Levels: LDL” value is reported as “LDL: −9.3%*”. Besides, the “TC level change from baseline” value in series [3] (oral semaglutide 3 mg, 26-week trial product estimate from another clinical trial) is given as “from baseline: −3%”. Also, in series [3] (oral semaglutide 3 mg, 26-week), the “HDL level change from baseline” value is given as “from baseline: 0%”, the “LDL level change from baseline” value is “from baseline: −4%” and the “TG level change from baseline” value is listed as “from baseline: −5%”. Moreover, in series [3] (oral semaglutide 7 mg, 26-week), the “HDL level change from baseline” value was “(3 mg), −2%”; the “LDL level change from baseline” value is listed as “(3 mg) ^$, −6%”; the “TC level change from baseline” value was “(3 mg) ^$$ −5%”; the “TG level change from baseline” value is “(3 mg), −9%”. Moreover, in series [3] (setting [9]), the “Effect on Body Weight (placebo-adjusted change from baseline)” value is 3 mg: −0.2 kg and the “Effect on HbA1c (placebo-adjusted change from baseline)” value was 3 mg: −0.7%. Besides, in series [3] (semaglutide 3 mg, sitagliptin 100 mg, saxagliptin 2.5 mg, vildagliptin 50 mg), the “Effect on Body Weight (placebo-adjusted change from baseline), percent” value was “(−0.23%)”. Further, in series [3] (setting [10]), the “Effect on Body Weight (placebo-adjusted change from baseline)” value is on record as 7 mg: −1.0 kg and the “Effect on HbA1c (placebo-adjusted change from baseline)” value was 7 mg: −1.2%. Also, in series [3] (semaglutide 7 mg, sitagliptin 200 mg, saxagliptin 5 mg, vildagliptin 100 mg), the “Effect on Body Weight (placebo-adjusted change from baseline), percent” value is “(−1.1%)”. In addition, in series [3] (setting [11]), the “Effect on Body Weight (placebo-adjusted change from baseline)” value is on record as 14 mg: −2.6 kg; the “Effect on Body Weight (placebo-adjusted change from baseline), percent” value is given as “(−3.0%)”; the “Effect on HbA1c (placebo-adjusted change from baseline)” value was 14 mg: −1.4%. The “percentage of patients in whom NASH resolution was achieved with no worsening of fibrosis” value (shortened to “percentage … with no worsening of fibrosis”) in series [4] (0.1-mg group) is given as 40%. The “percentage … with no worsening of fibrosis” value in series [4] (0.2-mg group) is reported as 36%. Further, in series [4] (0.4-mg group, placebo 1%), the “mean percent weight loss” value is recorded as 13%. In series [4] (0.4-mg group), the “percentage … with no worsening of fibrosis” value is 59%. In addition, in series [4] (human, in vivo), the incidence of constipation is recorded as 22%, the incidence of nausea is listed as 42%, the incidence of vomiting was 15% and the “patients with malignant neoplasms” value is 1%. Further, the “patients with neoplasms (benign, malignant, or unspecified)” value in series [4] (human, in vivo) is 15%. In the series on NASH in vivo models [5], the “liver TG and total cholesterol levels, plasma ALT level, and liver content of fibrosis markers” value is “Significantly decreased”. The “liver weight and NAS overall score” value with NASH in vivo models [5] (significant) is on record as “decreased liver weight”. For the same compound, in series [6], the “Incidence of Hypoglycemic Episodes for Combination with Insulin (vs. Placebo)” value is 29.8%* and the “Incidence of Hypoglycemic Episodes for Monotherapy at the Highest Dose (vs. Placebo)” value is on record as 3.8%.
In the case of `CC[C@H](C)[C@H](NC(=O)[C@H](Cc1ccccc1)NC(=O)[C@H](CC(=O)O)NC(=O)[C@H](CCCNC(=N)N)NC(=O)[C@H](C)NC(=O)[C@H](C)NC(=O)[C@H](CC(C)C)NC(=O)[C@H](CC(N)=O)NC(=O)[C@H](CC(=O)O)NC(=O)[C@H](CC(C)C)NC(=O)[C@@H](NC(=O)[C@@H](NC(=O)[C@H](CC(N)=O)NC(=O)[C@H](CCSC)NC(=O)[C@H](CCC(=O)O)NC(=O)[C@H](CC(=O)O)NC(=O)[C@H](CO)NC(=O)[C@H](Cc1ccccc1)NC(=O)[C@H](CO)NC(=O)CNC(=O)[C@H](CC(=O)O)NC(=O)CNC(=O)[C@@H](N)Cc1c[nH]cn1)[C@@H](C)O)[C@@H](C)CC)C(=O)N[C@@H](CC(N)=O)C(=O)N[C@@H](Cc1c[nH]c2ccccc12)C(=O)N[C@@H](CC(C)C)C(=O)N[C@H](C(=O)N[C@@H](CCC(N)=O)C(=O)N[C@H](C(=O)N[C@@H](CCCCN)C(=O)N[C@H](C(=O)N[C@H](C(=O)N[C@@H](CC(=O)O)C(=O)O)[C@@H](C)O)[C@@H](C)CC)[C@@H](C)O)[C@@H](C)CC` [teduglutide], in series [7], the injection site reaction was 13%, the intestinal stoma complication is given as 42% and the “upper respiratory tract infection” value is 21%.
